The subject of assay [1] is human DNA polymerases α and β. Briefly: Human DNA polymerase α and β assays, pooled statements in text. It is filed as biochemical.
The test system of assay [2] is herpetic DNA polymerases (HCMV, HSV-1, VZV). As to the kind of experiment: Herpetic DNA polymerase assays, pooled statements in text. It is filed as biochemical.
A further assay has as its target Human DNA Pol β (Homo sapiens, UniProt P06746). As to the kind of experiment: Enzyme assay with human DNA polymerase β. It is filed as biochemical.
Assay [3] deals with HCMV DNA polymerase (UL54) (Human cytomegalovirus, UniProt P08546). As to the kind of experiment: Enzyme assay with HCMV DNA polymerase. The format is biochemical. As to conditions: IC50 HCMV DNA Pol, activated calf thymus DNA, [3H]dTTP.
A further assay addresses HIV-1 RT (Human immunodeficiency virus type 1 group M subtype B, UniProt P03366). As to the kind of experiment: HIV-1 reverse transcriptase assay with homopolymeric template/primers. It is filed as biochemical.
Assay [4] addresses T1, RB69/ABC5 hybrid DNA polymerase (Escherichia phage RB69, UniProt Q38087, D222A/D327A/F479V/I557M/L561V/L562T/N480A/N558A/R559L/V478W). The settings on record: cited from earlier work.
The target in a further assay is T2, Human DNA Pol α (Homo sapiens, UniProt P09884).
T2 sequence (P09884 1-1462): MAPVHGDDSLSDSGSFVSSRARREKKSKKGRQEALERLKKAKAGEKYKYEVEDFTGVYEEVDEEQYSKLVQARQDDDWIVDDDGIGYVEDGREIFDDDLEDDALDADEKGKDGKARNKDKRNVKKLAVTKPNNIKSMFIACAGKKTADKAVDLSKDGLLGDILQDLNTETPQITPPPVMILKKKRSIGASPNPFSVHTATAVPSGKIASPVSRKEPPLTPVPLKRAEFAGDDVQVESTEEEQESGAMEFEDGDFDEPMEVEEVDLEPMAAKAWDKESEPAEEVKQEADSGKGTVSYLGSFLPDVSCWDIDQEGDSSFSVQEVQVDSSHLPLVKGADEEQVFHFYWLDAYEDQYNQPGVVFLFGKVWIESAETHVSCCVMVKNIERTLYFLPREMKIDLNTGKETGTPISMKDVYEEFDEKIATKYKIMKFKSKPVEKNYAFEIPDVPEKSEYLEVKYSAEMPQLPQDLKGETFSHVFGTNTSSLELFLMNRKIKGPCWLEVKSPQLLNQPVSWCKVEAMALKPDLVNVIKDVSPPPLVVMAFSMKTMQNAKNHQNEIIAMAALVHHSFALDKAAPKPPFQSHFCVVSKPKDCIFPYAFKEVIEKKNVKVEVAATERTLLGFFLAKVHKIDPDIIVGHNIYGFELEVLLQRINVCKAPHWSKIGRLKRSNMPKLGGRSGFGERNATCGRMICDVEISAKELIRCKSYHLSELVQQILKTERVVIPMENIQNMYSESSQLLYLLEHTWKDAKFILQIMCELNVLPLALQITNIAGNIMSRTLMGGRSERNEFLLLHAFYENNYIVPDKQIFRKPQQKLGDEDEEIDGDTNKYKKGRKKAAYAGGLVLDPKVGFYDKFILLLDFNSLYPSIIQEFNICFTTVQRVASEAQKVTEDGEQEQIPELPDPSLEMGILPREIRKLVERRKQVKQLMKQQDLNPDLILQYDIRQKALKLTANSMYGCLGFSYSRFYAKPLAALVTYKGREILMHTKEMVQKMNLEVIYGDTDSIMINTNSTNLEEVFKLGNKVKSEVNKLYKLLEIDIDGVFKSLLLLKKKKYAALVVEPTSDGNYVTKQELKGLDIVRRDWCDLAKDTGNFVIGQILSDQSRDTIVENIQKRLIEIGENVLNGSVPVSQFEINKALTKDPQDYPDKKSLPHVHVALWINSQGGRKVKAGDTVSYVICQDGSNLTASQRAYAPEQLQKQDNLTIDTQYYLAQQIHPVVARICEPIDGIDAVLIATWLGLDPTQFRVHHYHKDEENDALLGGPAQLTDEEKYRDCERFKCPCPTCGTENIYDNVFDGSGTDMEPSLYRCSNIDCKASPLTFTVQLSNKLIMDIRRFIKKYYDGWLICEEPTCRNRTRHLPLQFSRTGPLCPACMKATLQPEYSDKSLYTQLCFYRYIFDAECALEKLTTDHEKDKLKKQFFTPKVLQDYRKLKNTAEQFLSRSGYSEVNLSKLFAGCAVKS
Briefly: Enzyme assay with human DNA polymerase α. It is filed as biochemical.

In the next assay the target is HSV-1 DNA polymerase (Human herpesvirus 1, UniProt P04293). As to the kind of experiment: Enzyme assay with HSV-1 DNA polymerase. The format is biochemical.
The target of a further assay is Y115F HIV-1 RT (Human immunodeficiency virus type 1 group M subtype B, UniProt P03366, Y714F). As to the kind of experiment: Mutant HIV-1 RT assay.
A further assay concerns the target VZV DNA polymerase (Varicella-zoster virus, UniProt P09252). As to the kind of experiment: Enzyme assay with VZV DNA polymerase. The format is biochemical.
The target in a further assay is M184I HIV-1 RT (Human immunodeficiency virus type 1 group M subtype B, UniProt P03366, M783I). As to the kind of experiment: Mutant HIV-1 RT assay.
The target in assay [5] is T1, RB69/ABC5 hybrid DNA polymerase. As to the kind of experiment: biochemical. On the set-up: species or system bacteriophage RB69 / HCMV.
Assay [6] has as its target bacteriophage RB69 DNA polymerase gp43 (WT) (Escherichia phage RB69, UniProt Q38087, D222A/D327A). Briefly: biochemical.
Where [7] appears, read: IC50 HIV-1 RT Poly rA.dT ([3H]dTTP), Table 7, Poly rA.dT, [3H]dTTP.
The mark [8] stands for this setting: IC50 HIV-1 RT Poly rC.dG ([3H]dGTP), Poly rC.dG, [3H]dGTP.
Where [9] appears, read: IC50 HIV-1 RT Poly rI.dC ([3H]dCTP), Poly rI.dC, [3H]dCTP.
[10] abbreviates: IC50 HIV-1 RT Poly rU.dA ([3H]dATP), Poly rU.dA, [3H]dATP.
[11] abbreviates: IC50 HIV-1 RT, poly rA.dT template/primer, [3H]dTTP.
Where [12] appears, read: IC50 Wild-type HIV-1 RT, Table 8, wild-type RT.

Sequence of VZV DNA polymerase (P09252 whole entry): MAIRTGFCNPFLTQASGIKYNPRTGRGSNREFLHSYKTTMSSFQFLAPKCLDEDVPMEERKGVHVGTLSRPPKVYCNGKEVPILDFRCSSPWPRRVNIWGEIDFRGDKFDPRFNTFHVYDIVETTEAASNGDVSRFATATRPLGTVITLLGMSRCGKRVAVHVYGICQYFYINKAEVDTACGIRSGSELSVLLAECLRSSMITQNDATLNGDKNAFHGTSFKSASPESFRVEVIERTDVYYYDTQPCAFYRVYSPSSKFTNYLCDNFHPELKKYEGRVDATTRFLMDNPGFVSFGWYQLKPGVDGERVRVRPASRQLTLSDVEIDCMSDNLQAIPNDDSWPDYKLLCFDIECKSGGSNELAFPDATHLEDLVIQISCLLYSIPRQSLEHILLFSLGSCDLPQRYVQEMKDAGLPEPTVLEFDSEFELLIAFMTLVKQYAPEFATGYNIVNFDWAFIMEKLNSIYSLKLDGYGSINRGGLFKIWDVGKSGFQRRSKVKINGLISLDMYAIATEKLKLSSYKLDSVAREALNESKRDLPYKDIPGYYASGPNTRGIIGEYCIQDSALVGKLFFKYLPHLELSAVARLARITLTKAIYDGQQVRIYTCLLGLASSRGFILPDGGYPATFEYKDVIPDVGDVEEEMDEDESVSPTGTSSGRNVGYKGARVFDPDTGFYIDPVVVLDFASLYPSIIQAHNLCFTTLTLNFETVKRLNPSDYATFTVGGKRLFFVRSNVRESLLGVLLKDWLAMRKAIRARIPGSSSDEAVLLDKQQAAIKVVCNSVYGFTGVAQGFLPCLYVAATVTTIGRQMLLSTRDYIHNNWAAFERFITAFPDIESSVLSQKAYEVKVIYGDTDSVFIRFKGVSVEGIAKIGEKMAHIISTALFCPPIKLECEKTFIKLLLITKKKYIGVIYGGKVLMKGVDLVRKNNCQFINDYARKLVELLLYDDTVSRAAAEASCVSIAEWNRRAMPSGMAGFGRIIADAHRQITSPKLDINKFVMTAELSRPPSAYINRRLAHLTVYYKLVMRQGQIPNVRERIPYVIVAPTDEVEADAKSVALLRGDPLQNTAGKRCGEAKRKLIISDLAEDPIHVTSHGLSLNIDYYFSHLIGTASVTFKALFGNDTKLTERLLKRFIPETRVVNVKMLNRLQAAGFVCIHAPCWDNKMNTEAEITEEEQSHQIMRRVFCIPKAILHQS
Sequence of HSV-1 DNA polymerase (P04293 whole entry): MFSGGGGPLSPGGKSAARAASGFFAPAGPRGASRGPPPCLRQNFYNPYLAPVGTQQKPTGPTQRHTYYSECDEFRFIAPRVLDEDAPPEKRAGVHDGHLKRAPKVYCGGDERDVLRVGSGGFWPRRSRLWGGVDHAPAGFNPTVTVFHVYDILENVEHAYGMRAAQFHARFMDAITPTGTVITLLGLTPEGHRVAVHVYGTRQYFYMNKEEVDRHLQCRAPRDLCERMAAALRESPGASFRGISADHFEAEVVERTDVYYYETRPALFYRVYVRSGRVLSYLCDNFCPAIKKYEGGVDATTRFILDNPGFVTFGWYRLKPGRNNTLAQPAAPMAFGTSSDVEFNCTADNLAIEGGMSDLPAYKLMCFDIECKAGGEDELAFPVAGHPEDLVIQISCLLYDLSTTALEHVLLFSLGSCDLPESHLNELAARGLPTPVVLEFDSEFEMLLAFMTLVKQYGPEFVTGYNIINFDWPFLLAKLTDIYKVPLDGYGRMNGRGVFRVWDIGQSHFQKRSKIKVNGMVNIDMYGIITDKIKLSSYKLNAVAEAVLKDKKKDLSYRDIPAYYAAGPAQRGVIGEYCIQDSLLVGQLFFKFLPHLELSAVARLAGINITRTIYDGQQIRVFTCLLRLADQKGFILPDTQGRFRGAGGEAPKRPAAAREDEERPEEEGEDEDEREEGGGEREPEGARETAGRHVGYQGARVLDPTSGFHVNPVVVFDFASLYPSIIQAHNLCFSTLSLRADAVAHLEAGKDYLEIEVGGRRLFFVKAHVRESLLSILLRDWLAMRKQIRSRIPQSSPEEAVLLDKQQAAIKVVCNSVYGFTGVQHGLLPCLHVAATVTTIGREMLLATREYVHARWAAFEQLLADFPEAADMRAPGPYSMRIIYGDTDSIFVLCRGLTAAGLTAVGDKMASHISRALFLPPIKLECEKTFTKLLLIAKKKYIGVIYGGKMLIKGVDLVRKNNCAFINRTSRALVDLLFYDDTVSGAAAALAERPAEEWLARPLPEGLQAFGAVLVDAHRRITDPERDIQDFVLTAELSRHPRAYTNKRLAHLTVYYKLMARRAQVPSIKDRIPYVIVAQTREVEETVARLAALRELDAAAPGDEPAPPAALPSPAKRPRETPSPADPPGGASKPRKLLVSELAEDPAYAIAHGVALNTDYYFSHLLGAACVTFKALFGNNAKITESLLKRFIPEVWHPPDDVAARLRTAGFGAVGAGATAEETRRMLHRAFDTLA
T1 sequence (Q38087 whole entry D222A/D327A/V478W/F479V/N480A/I557M/N558A/R559L/L561V/L562T): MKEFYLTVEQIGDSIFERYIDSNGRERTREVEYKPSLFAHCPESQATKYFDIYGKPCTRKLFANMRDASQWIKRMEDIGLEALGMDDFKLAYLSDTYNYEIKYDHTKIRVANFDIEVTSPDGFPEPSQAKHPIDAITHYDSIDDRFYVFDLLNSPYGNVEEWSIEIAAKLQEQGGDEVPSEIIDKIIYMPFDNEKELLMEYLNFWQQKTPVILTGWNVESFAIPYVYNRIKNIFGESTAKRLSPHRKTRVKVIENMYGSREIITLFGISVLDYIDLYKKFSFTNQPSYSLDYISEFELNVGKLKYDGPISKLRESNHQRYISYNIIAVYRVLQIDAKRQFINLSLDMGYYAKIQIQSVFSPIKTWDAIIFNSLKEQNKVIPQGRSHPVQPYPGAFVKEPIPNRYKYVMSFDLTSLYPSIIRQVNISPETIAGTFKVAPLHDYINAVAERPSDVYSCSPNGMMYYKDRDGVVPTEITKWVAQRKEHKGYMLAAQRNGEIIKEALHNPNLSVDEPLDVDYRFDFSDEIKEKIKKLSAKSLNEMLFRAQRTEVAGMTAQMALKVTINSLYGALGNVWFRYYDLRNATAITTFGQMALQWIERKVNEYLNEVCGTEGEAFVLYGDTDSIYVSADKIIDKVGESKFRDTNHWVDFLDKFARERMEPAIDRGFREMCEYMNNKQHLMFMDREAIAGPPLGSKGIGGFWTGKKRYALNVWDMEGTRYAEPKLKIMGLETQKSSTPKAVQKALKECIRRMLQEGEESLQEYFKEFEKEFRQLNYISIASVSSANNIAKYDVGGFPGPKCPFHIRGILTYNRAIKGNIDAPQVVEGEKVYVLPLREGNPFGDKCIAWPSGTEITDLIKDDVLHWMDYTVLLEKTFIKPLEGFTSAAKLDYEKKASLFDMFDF
Sequence of HCMV DNA polymerase (UL54) (P08546 whole entry): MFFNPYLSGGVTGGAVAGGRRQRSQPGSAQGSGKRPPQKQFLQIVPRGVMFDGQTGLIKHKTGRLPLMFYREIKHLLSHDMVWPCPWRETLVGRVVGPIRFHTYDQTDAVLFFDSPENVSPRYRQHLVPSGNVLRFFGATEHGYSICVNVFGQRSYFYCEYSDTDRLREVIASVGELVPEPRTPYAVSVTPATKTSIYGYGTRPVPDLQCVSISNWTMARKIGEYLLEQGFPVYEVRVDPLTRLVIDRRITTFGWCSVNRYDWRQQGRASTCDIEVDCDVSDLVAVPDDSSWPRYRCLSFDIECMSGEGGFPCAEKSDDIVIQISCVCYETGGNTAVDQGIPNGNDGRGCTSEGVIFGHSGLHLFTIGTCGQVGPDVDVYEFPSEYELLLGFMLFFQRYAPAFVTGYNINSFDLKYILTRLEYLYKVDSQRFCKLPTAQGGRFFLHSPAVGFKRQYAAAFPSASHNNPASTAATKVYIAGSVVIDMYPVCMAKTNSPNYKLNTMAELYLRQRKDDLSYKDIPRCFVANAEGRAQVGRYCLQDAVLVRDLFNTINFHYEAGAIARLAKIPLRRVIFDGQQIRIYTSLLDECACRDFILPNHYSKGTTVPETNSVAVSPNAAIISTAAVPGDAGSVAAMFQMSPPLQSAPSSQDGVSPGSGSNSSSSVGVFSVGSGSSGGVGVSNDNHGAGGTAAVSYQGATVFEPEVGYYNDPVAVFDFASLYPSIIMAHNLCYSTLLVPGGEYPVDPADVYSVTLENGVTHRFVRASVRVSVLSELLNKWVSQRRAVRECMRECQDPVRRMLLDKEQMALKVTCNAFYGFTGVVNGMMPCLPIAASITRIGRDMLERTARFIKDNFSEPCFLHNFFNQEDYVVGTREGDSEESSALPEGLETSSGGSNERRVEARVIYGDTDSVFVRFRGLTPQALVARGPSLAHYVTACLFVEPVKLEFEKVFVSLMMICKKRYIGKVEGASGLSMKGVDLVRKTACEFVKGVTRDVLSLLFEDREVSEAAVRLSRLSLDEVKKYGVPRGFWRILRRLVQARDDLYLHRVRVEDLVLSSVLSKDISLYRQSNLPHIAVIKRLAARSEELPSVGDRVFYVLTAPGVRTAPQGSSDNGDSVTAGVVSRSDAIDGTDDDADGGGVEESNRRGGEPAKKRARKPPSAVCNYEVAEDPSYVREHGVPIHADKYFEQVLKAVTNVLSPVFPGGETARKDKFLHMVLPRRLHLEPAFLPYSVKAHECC
Sequence of bacteriophage RB69 DNA polymerase gp43 (WT) (Q38087 whole entry D222A/D327A): as the sequence (Q38087 whole entry D222A/D327A/V478W/F479V/N480A/I557M/N558A/R559L/L561V/L562T) above, with W478V, V479F, A480N, M557I, A558N, L559R, V561L, T562L counted along it

For the molecule `Cc1cn(C[C@@H]2CCC[C@H]2COC(C(=O)O)P(=O)(O)O)c(=O)[nH]c1=O` (relative stereo) [Compound 6o], the “inhibitory activity against human DNA polymerases (in words)” value in assay [1] was “poor, if any, inhibitory activity”. Moreover, the “inhibitory activity against herpetic DNA polymerases (in words)” value in [2] is on record as “poor, if any, inhibitory activity”.

As to `O=C(O)P(=O)(O)O` [PFA, phosphonoformic acid, reference compound], the IC50 (commonly the concentration that gives 50% inhibition) at Human DNA Pol β is more than 100 µM; in assay [3], 9.8 ± 5.8 µM; on HIV-1 RT (IC50 HIV-1 RT), 0.34 ± 0.01 µM; against HIV-1 RT (IC50 HIV-1 RT Poly rA.dT ([3H]dTTP)), 0.34 ± 0.01 µM; against HIV-1 RT (IC50 HIV-1 RT Poly rC.dG ([3H]dGTP)), 17 ± 2 µM; against HIV-1 RT (IC50 HIV-1 RT Poly rI.dC ([3H]dCTP)), 6.8 ± 2 µM. For the same molecule, the IC50 at HIV-1 RT (IC50 HIV-1 RT Poly rU.dA ([3H]dATP)) is 0.75 ± 0.13 µM; at Human DNA Pol α, 7.7 ± 6.5 µM; at HSV-1 DNA polymerase, 0.44 ± 0.25 µM. The “sensitivity of chimera RB69/ABC5 to active-site inhibitors” value in [4] was “sensitive”.

As for `Nc1ncnc2c1ncn2C/C=C\COC(C(=O)O)P(=O)(O)O` (stereo not drawn) [Compound 6k, 2-Cis-(4-(6-amino-9H-purin-9-yl)but-2-enyloxy)-2-phosphonoacetic acid], the IC50 was 630 ± 37 µM at Y115F HIV-1 RT; 454 ± 28 µM against Human DNA Pol β; 5.5 ± 2.1 µM in assay [3]; 404 ± 30 µM against HIV-1 RT (setting [7]); more than 500 µM on HIV-1 RT (setting [8]); more than 500 µM at HIV-1 RT (setting [9]). The half-inhibitory concentration (IC50) against HIV-1 RT (setting [10]) was 40 ± 8 µM; on HIV-1 RT (setting [11]), 404 ± 30 µM; on HIV-1 RT (setting [12]), 531 ± 154 µM; on VZV DNA polymerase, 3.3 ± 0.4 µM; on M184I HIV-1 RT, not below 2500 µM; against Human DNA Pol α, not below 500 µM. For the same molecule, the IC50 on HSV-1 DNA polymerase is 2.7 ± 2 µM.

`Nc1nc2c(ncn2C/C=C\COC(C(=O)O)P(=O)(O)O)c(=O)[nH]1` (stereo not drawn) [Compound 6l, 2-Cis-(4-(2-amino-6-oxo-1H-purin-9(6H)-yl)but-2-enyloxy)-2-phosphonoacetic acid]: the IC50 was not below 1250 µM on Y115F HIV-1 RT; more than 500 µM at Human DNA Pol β; 3.6 ± 0.6 µM in assay [3]; not below 500 µM on HIV-1 RT (setting [7]); more than 500 µM at HIV-1 RT (setting [8]); more than 500 µM against HIV-1 RT (setting [9]). The IC50 is 369 ± 48 µM against HIV-1 RT (setting [10]); not below 500 µM at HIV-1 RT (setting [11]); not below 1250 µM against HIV-1 RT (setting [12]); 2.9 µM on VZV DNA polymerase; more than 1250 µM against M184I HIV-1 RT; 365 ± 91 µM at Human DNA Pol α. Besides, at HSV-1 DNA polymerase, inhibition was half-maximal at 2.1 ± 2.3 µM (IC50).

With `Nc1nc2c(ncn2COCCOP(=O)(O)OP(=O)(O)OP(=O)(O)O)c(=O)[nH]1` [acyclovir triphosphate], the “sensitivity of chimera RB69/ABC5 to active-site inhibitors” value in [4] is “sensitive”.

For `Nc1ccn(C/C=C\COC(C(=O)O)P(=O)(O)O)c(=O)n1` (stereo not drawn) [Compound 6m, 2-Cis-(4-(4-amino-2-oxopyrimidin-1(2H)-yl)but-2-enyloxy)-2-phosphonoacetic acid], the IC50 against Y115F HIV-1 RT is 408 ± 16 µM; against Human DNA Pol β, more than 500 µM; in [3], 16 ± 8 µM; at HIV-1 RT (setting [7]) it was 270 ± 33 µM; against HIV-1 RT (setting [8]) it was more than 500 µM; on HIV-1 RT (setting [9]), 273 ± 54 µM. For the same molecule, the IC50 is more than 500 µM on HIV-1 RT (setting [10]); 270 ± 33 µM against HIV-1 RT (setting [11]); 318 ± 73 µM at HIV-1 RT (setting [12]); 2.9 ± 0.9 µM at VZV DNA polymerase; more than 1250 µM at M184I HIV-1 RT; 414 ± 22 µM against Human DNA Pol α. Also, half-maximal inhibition at HSV-1 DNA polymerase (IC50) was put at 12 ± 6 µM.

As to `O=C(O)C(OC/C=C\CO)P(=O)(O)O` (stereo not drawn) [Compound 6n, 2-Cis-((4-hydroxybut-2-en-1-yl)oxy)-2-phosphonoacetic acid], the “inhibitory activity against HIV-1 RT (in words)” value against HIV-1 RT is reported as “insensitive”. Besides, in [1], the “inhibitory activity against human DNA polymerases (in words)” value is recorded as “insensitive”. Besides, in [2], the “inhibitory activity against herpetic DNA polymerases (in words)” value is given as “insensitive”.

On to `Cc1cn(C/C=C\COC(C(=O)O)P(=O)(O)O)c(=O)[nH]c1=O` (stereo not drawn) [Compound 6g, cis-2-(4-(2,4-Dioxo-5-methyl-pyrimidin-1-yl)but-2-enyloxy)-2-phosphonoacetic acid], for which the IC50 on Y115F HIV-1 RT is 655 ± 409 µM; in assay [5] it was more than 100 µM; against Human DNA Pol β, more than 500 µM; in assay [6], more than 100 µM; on HIV-1 RT (setting [7]), 235 ± 16 µM; at HIV-1 RT (setting [8]) it was more than 500 µM. Moreover, the IC50 against HIV-1 RT (setting [9]) is more than 500 µM; at HIV-1 RT (setting [10]), not below 500 µM; at HIV-1 RT (setting [11]), 235 ± 16 µM; against HIV-1 RT (setting [12]), 320 ± 89 µM; at VZV DNA polymerase, 2.2 ± 0.1 µM; against M184I HIV-1 RT, more than 2500 µM. Besides, the IC50 came out at 14 ± 7 µM at Human DNA Pol α and 3.7 ± 1.7 µM on HSV-1 DNA polymerase. On HIV-1 RT (ratio of IC50 vs thymine-α-CNP), the “loss of anti-HIV-1 RT activity compared to prototype thymine-α-CNP” value is listed as ~ 600 fold. Also, the “selectivity for herpetic DNA polymerases compared to human DNA polymerase α” value in assay [2] (herpetic vs human DNA polymerase α) is 4- to 7 fold. For the same molecule, in assay [2] (ratio vs 6h), the “higher potency against herpetic DNA polymerases compared to butyl analogue 6h” value was 8- to 20 fold. Besides, the “superior activity against herpetic DNA polymerases than against HIV-1 RT” value in assay [2] (selectivity herpetic over HIV-1 RT) is on record as ~ 100 fold.
